Test [1] concerns Phosphorylated Ribosomal Protein S6 (RPS6) in THP-1 cells. Put plainly: THP-1 RPS6 ELISA assay. Format: cell-based, human. To be noted: Homo sapiens, THP-1, THP-1 cells, 10 nM MCP-1; read-out: PI3Kγ_THP1_RPS6_ELISA IC50.
Test [2] addresses PI3Kδ (p110δ/p85α) Recombinant Human Protein (Homo sapiens (Human), UniProt O00329). Briefly: PI3Kδ scintillation proximity assay. Type of test: biochemical. To be noted: 2 μM ATP, 20 μM PIP2. Background: SPA uses beads or plates that emit light when radiolabelled molecules are held near them.
The target of test [3] is PI3Kγ (p110γ) Recombinant Human Protein (Homo sapiens (Human), UniProt P48736). Briefly: PI3K-γ scintillation proximity assay. To be noted: 2 μM ATP, 20 μM PIP2. Format: biochemical.

SMILES strings stand for the structures. pIC50: −log10 of the molar value. Where a name gives a salt, the structure may show the parent alone.

Chain of PI3Kδ (p110δ/p85α) Recombinant Human Protein (O00329 whole entry): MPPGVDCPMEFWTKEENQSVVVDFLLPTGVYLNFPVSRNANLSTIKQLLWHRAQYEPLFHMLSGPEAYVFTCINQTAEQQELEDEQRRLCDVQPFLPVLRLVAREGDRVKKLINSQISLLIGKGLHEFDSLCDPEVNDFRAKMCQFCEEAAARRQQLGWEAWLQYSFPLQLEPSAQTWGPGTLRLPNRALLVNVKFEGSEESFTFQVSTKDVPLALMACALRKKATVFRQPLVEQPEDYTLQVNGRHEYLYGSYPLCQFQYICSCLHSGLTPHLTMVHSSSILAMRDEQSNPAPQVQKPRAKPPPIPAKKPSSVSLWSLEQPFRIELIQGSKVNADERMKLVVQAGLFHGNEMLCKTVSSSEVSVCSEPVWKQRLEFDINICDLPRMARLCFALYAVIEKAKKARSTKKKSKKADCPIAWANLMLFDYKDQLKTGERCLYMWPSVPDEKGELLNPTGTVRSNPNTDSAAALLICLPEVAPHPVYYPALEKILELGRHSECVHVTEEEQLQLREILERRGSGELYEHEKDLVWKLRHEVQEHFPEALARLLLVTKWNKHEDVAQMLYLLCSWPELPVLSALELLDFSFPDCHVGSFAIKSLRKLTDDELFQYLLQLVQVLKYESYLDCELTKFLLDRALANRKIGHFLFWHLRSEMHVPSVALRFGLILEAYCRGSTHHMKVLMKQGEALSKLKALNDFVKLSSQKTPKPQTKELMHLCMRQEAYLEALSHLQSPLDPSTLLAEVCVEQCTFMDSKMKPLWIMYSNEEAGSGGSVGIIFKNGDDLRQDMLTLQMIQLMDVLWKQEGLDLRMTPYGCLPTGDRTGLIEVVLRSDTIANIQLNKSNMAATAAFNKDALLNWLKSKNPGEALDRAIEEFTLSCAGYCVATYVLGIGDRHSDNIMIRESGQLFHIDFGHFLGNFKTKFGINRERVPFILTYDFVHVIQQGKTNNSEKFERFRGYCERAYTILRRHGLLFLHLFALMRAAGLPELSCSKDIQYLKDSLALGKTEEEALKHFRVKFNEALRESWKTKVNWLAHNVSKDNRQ
Chain of PI3Kδ (p110δ/p85α) Recombinant Human Protein (P27986 whole entry partner): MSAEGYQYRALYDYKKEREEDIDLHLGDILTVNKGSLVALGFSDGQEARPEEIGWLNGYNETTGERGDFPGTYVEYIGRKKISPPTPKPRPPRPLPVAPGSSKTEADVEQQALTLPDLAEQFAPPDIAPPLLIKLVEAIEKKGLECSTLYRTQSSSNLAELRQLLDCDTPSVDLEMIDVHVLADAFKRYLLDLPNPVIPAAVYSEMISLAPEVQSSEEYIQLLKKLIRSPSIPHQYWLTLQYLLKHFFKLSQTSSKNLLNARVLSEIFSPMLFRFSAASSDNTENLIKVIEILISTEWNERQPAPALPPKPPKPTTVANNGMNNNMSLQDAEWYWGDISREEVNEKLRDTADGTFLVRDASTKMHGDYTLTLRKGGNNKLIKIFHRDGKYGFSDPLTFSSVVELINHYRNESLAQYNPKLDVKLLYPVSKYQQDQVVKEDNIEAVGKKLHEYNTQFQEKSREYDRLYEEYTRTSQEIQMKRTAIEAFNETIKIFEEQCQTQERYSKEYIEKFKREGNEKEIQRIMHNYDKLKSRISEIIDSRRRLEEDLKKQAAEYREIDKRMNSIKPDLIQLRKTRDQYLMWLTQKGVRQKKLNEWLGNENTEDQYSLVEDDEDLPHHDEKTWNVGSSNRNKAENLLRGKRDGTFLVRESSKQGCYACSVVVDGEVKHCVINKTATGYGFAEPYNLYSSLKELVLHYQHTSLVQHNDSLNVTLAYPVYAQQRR
Chain of PI3Kγ (p110γ) Recombinant Human Protein (P48736 whole entry): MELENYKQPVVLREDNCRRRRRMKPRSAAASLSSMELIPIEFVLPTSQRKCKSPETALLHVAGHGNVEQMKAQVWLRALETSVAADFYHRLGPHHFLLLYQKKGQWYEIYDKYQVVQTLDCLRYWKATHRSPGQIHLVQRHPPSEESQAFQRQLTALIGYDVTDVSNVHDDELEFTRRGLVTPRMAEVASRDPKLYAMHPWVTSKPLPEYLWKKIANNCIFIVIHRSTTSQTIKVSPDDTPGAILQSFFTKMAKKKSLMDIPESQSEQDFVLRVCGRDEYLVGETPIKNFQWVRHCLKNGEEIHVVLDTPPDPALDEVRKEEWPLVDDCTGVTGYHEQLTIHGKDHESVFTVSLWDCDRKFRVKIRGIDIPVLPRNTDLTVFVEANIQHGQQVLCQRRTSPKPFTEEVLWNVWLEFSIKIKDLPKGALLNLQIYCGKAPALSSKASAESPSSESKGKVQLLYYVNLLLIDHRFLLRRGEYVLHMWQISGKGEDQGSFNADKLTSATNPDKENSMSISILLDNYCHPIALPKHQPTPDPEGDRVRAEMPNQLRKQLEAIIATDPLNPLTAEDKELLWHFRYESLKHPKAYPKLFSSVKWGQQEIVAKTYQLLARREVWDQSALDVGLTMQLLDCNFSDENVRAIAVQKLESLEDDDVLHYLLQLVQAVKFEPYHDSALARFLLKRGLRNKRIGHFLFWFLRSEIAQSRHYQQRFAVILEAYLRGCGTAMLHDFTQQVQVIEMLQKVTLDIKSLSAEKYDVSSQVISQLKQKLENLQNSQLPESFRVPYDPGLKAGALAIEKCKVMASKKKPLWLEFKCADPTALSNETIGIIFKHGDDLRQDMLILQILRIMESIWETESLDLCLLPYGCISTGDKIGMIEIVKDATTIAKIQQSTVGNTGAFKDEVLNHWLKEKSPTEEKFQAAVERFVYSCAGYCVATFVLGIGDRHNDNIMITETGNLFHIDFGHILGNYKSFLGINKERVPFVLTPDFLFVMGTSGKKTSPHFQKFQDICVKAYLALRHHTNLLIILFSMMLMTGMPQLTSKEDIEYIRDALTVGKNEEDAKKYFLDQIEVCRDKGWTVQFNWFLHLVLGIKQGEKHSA

`CCOc1c(C(C)NC(=O)c2c(N)nn3cccnc23)cc(Cl)c2cnn(C)c12` (stereo not drawn): the pIC50 (as a rule, the negative decadic logarithm of the IC50, by convention in mol/L) in test [1] was greater than 6.30.
As to `CC(NC(=O)c1c(N)nn2cccnc12)c1cc(Cl)c2cncn2c1N1CCC(C#N)C1` (racemic) [Example 32, 2-Amino-N-(1-(8-chloro-5-(3-cyanopyrrolidin-1-yl)imidazo[1,5-a]pyridin-6-yl)ethyl)pyrazolo[1,5-a]pyrimidine-3-carboxamide trifluoroacetate salt], the pIC50 in test [2] is greater than 7.00; in test [1], greater than 6.30; in test [3] it was greater than 7.00.
For the compound `CC(NC(=O)c1c(N)nn2cccnc12)c1cc(Cl)c2cncn2c1N1C[C@H](O)[C@@H](F)C1` (mixture of isomers) [Example 35, 2-Amino-N-(1-(8-chloro-5-((3S,4S)-3-fluoro-4-hydroxypyrrolidin-1-yl)imidazo[1,5-a]pyridin-6-yl)ethyl)pyrazolo[1,5-a]pyrimidine-3-carboxamide trifluoroacetate salt], the pIC50 in test [2] was greater than 7.00; in test [1], greater than 6.30; in test [3], greater than 7.00.
Take `CC(NC(=O)c1c(N)nn2cccnc12)c1cc(Cl)c2cn[nH]c2c1N1CCC(O)C1` (racemic) [Example 90A, 2-Amino-N-{1-[4-chloro-7-(3-hydroxypyrrolidin-1-yl)-2H-indazol-6-yl]ethyl}pyrazolo[1,5-a]pyrimidine-3-carboxamide bis(trifluoroacetate)]: the pIC50 in test [2] is greater than 6.30; in test [1] it was greater than 6.30; in test [3], greater than 7.00.
`Cc1ncc2c(Cl)cc(C(C)NC(=O)c3c(N)nn4cccnc34)c(-c3cn[nH]c3)n12` (racemic) [Example 118, 2-Amino-N-{1-[8-chloro-3-methyl-5-(1H-pyrazol-4-yl)imidazo[1,5-a]pyridin-6-yl]ethyl}pyrazolo[1,5-a]pyrimidine-3-carboxamide trifluoroacetate salt]: the pIC50 in test [2] is greater than 7.00; in test [1], greater than 6.30; in test [3], greater than 7.00.
With `Cc1ncc2c(Cl)cc(C(C)NC(=O)c3c(N)nn4cccnc34)c(-c3cnn(C)c3)n12` (racemic) [Example 119, 2-Amino-N-{1-[8-chloro-3-methyl-5-(1-methyl-1H-pyrazol-4-yl)imidazo[1,5-a]pyridin-6-yl]ethyl}pyrazolo[1,5-a]pyrimidine-3-carboxamide trifluoroacetate salt], the pIC50 in test [2] was greater than 6.30; in test [1], greater than 6.30; in test [3], greater than 7.00.
With `Cc1ncc2c(Cl)cc(C(C)NC(=O)c3c(N)nn4cccnc34)c(-c3cccnc3)n12` (racemic) [Example 120, 2-Amino-N-[1-(8-chloro-3-methyl-5-pyridin-3-ylimidazo[1,5-a]pyridin-6-yl)ethyl]pyrazolo[1,5-a]pyrimidine-3-carboxamide trifluoroacetate salt], the results for the pIC50 in test [2], in test [1] and in test [3] were greater than 7.00, greater than 6.30 and greater than 7.00, respectively.
Consider `Cc1ncc2c(Cl)cc(C(C)NC(=O)c3c(N)nn4cccnc34)c(-c3ccccc3)n12` (racemic) [Example 121, 2-Amino-N-[1-(8-chloro-3-methyl-5-phenylimidazo[1,5-a]pyridin-6-yl)ethyl]pyrazolo[1,5-a]pyrimidine-3-carboxamide trifluoroacetate salt], for which the figures for the pIC50 in test [2], in test [1] and in test [3] were greater than 6.30, greater than 6.30 and greater than 7.00, respectively.
Turning to `Cc1nc(Cl)c2c(Cl)cc(C(C)NC(=O)c3c(N)nn4cccnc34)c(-c3cn[nH]c3)n12` (racemic) [Example 122, 2-Amino-N-{1-[1,8-dichloro-3-methyl-5-(1H-pyrazol-4-yl)imidazo[1,5-a]pyridin-6-yl]ethyl}pyrazolo[1,5-a]pyrimidine-3-carboxamide trifluoroacetate salt], the pIC50 was greater than 7.00 in test [2], greater than 6.30 in test [1] and greater than 7.00 in test [3].
`Cc1nc(F)c2c(Cl)cc(C(C)NC(=O)c3c(N)nn4cccnc34)c(-c3cn[nH]c3)n12` (racemic) [Example 123, 2-Amino-N-{1-[8-chloro-1-fluoro-3-methyl-5-(1H-pyrazol-4-yl)imidazo[1,5-a]pyridin-6-yl]ethyl}pyrazolo[1,5-a]pyrimidine-3-carboxamide trifluoroacetate salt]: the results for the negative-log IC50 (pIC50) in test [2], in test [1] and in test [3] were greater than 7.00, greater than 6.30 and greater than 7.00, respectively.
As to `Cc1nc(C(F)(F)F)c2c(Cl)cc(C(C)NC(=O)c3c(N)nn4cccnc34)c(-c3ccccc3)n12` (racemic) [Example 124, 2-Amino-N-{1-[8-chloro-3-methyl-5-phenyl-1-(trifluoromethyl)imidazo[1,5-a]pyridin-6-yl]ethyl}pyrazolo[1,5-a]pyrimidine-3-carboxamide trifluoroacetate salt], the values for the pIC50 in test [2], in test [1] and in test [3] were no more than 5.70, less than 6.00 and greater than 6.30, respectively.
The like results for `Cc1nc(C#N)c2c(Cl)cc(C(C)NC(=O)c3c(N)nn4cccnc34)c(-c3ccccc3)n12` (racemic) [Example 125, 2-Amino-N-[1-(8-chloro-1-cyano-3-methyl-5-phenylimidazo[1,5-a]pyridin-6-yl)ethyl]pyrazolo[1,5-a]pyrimidine-3-carboxamide trifluoroacetate salt] were, in that order, greater than 6.30, greater than 6.30 and greater than 7.00.
Regarding `C#Cc1nc(C)n2c(-c3ccccc3)c(C(C)NC(=O)c3c(N)nn4cccnc34)cc(Cl)c12` (racemic) [Example 126, 2-Amino-N-[1-(8-chloro-1-ethynyl-3-methyl-5-phenylimidazo[1,5-a]pyridin-6-yl)ethyl]pyrazolo[1,5-a]pyrimidine-3-carboxamide], the pIC50 was greater than 5.70 in test [2], greater than 6.30 in test [1] and greater than 7.00 in test [3].
On the same counts, the results for `CC(NC(=O)c1c(N)nn2cccnc12)c1cc(Cl)c2cncn2c1-c1cccnc1` (racemic) [Example 127, 2-Amino-N-[1-(8-chloro-5-pyridin-3-ylimidazo[1,5-a]pyridin-6-yl)ethyl]pyrazolo[1,5-a]pyrimidine-3-carboxamide trifluoroacetate salt] are greater than 7.00, greater than 6.30 and greater than 7.00.
The like results for `CC(NC(=O)c1c(N)nn2cccnc12)c1cc(Cl)c2c(C#N)ncn2c1-c1cccnc1` (racemic) [Example 128, 2-Amino-N-[1-(8-chloro-1-cyano-5-pyridin-3-ylimidazo[1,5-a]pyridin-6-yl)ethyl]pyrazolo[1,5-a]pyrimidine-3-carboxamide trifluoroacetate salt] were, in that order, greater than 5.70, less than 6.00 and greater than 7.00.
For `Cc1ncn2c(-c3cccnc3)c(C(C)NC(=O)c3c(N)nn4cccnc34)cc(Cl)c12` (racemic) [Example 129, 2-Amino-N-[1-(8-chloro-1-methyl-5-pyridin-3-ylimidazo[1,5-a]pyridin-6-yl)ethyl]pyrazolo[1,5-a]pyrimidine-3-carboxamide trifluoroacetate salt], the pIC50 in test [2] is greater than 5.70; in test [1], greater than 6.00; in test [3], greater than 7.00.
Take `CC(NC(=O)c1c(N)nn2cccnc12)c1cc(Cl)c2cn[nH]c2c1-c1ccccc1` (stereo not drawn) [Example 14]: the pIC50 in test [1] was greater than 6.00.
In the case of `CC(NC(=O)c1c(N)nn2cccnc12)c1cc(Cl)c2c(Br)n[nH]c2c1-c1ccccc1` (stereo not drawn) [Example 23], the pIC50 in test [1] was greater than 6.00.
Same read-out and setting: in the case of `Cc1ncc2c(Cl)cc(C(C)NC(=O)c3c(N)nn4cccnc34)c(-c3cccc(F)c3)n12` (stereo not drawn) [Example 26] it was greater than 6.30.
Turning to `CC(NC(=O)c1c(N)nn2cccnc12)c1cc(Cl)c2cn[nH]c2c1C1=CCN(C(=O)OCc2ccccc2)CC1` (stereo not drawn) [Example 98, Benzyl 4-[6-(1-{[(2-aminopyrazolo[1,5-a]pyrimidin-3-yl)carbonyl]amino}ethyl)-4-chloro-2H-indazol-7-yl]-3,6-dihydropyridine-1(2H)-carboxylate bis(trifluoroacetate)], the negative-log IC50 (pIC50) was greater than 5.70 in test [2] and greater than 6.30 in test [3].
On the same counts, the results for `CC(NC(=O)c1c(N)nn2cccnc12)c1cc(Cl)c2cn[nH]c2c1C1=CCNCC1` (stereo not drawn) [Example 99, 2-Amino-N-{1-[4-chloro-7-(1,2,3,6-tetrahydropyridin-4-yl)-2H-indazol-6-yl]ethyl}pyrazolo[1,5-a]pyrimidine-3-carboxamide bis(trifluoroacetate)] are greater than 7.00 and greater than 6.30.
For the compound `CC(NC(=O)c1c(N)nn2cccnc12)c1cc(Cl)c2cn[nH]c2c1N1CCC(C(=O)N(C)C)CC1` (stereo not drawn) [Example 108, 2-Amino-N-[1-(4-chloro-7-{4-[(dimethylamino)carbonyl]piperidin-1-yl}-2H-indazol-6-yl)ethyl]pyrazolo[1,5-a]pyrimidine-3-carboxamide trifluoroacetate], the pIC50 in test [2] is greater than 6.30; in test [3], greater than 7.00.
Consider `C[C@H](NC(=O)c1c(N)nn2cccnc12)c1cc(Cl)c2c(Cl)ncn2c1N1CCNS(=O)(=O)CC1` [Example 160, 2-Amino-N-{(1S)-1-[1,8-dichloro-5-(1,1-dioxido-1,2,5-thiadiazepan-5-yl)imidazo[1,5-a]pyridin-6-yl]ethyl}pyrazolo[1,5-a]pyrimidine-3-carboxamide trifluoroacetate salt], for which the pIC50 in test [2] and in test [3] was greater than 7.00 each time.
`C[C@H](NC(=O)c1c(N)nn2cccnc12)c1cc(Cl)c2c(Cl)ncn2c1N1CCNC(=O)CC1` [Example 161, 2-Amino-N-{(1S)-1-[1,8-dichloro-5-(5-oxo-1,4-diazepan-1-yl)imidazo[1,5-a]pyridin-6-yl]ethyl} pyrazolo[1,5-a] pyrimidine-3-carboxamide trifluoroacetate salt]: the negative logarithm of the IC50 (pIC50) in test [2] and in test [3] was greater than 7.00 each time.
Consider `CCCC(NC(=O)c1c(N)nn2cccnc12)c1cc(Cl)c2cncn2c1N1CCS(=O)(=O)CC1` (stereo not drawn) [Example 178, trifluoroacetate salt], for which the pIC50 in test [1] is greater than 6.30.

Source of the values: US10065963B2 (Incyte Corporation, priority 2015, dated 2018).
